Results from patent publication US10206394B2, “Herbicidal compounds” (Syngenta Participations AG, priority 2014, dated 2019).
Where two headings read alike, the source gives them in different places.

Assays:
Assay in all cases: Glasshouse assay for herbicidal activity (pre- and post-emergence), percentage phytotoxicity
Assay type in all cases: in vivo
[1] = tested on: Alopecurus myosuroides (ALOMY); conditions: Alopecurus myosuroides, Rate 250 g/ha, 100%=total damage, 0%=no damage
Procedure, shortened: (§1)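 Pot-grown, standard soil. PRE: spray 1 d post-sowing; POST: ~12 d. Glasshouse 24/18 °C (warm spp.) / 20/16 °C (cool spp.), 16 h light, 65% RH, watered 2×/day. Visual % damage, 20 DAA PRE, 15 DAA POST.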

Avena fatua (AVEFA) = conditions: Avena fatua, Rate 250 g/ha, 100%=total damage, 0%=no damage
Procedure, shortened: as §1

[2] = tested on: Echinochloa crus-galli (ECHCG); conditions: Echinochloa crus-galli, Rate 250 g/ha, 100%=total damage, 0%=no damage
Procedure, shortened: as §1

Lolium perenne (LOLPE) = conditions: Lolium perenne, Rate 250 g/ha, 100%=total damage, 0%=no damage
Procedure, shortened: as §1

[3] = post-emergence, 360 h, post-emergence, visual assessment 15 DAA, read-out: Post-emergence herbicidal activity (percentage phytotoxicity) ALOMY POST
[4] = pre-emergence, 480 h, pre-emergence, visual assessment 20 DAA, read-out: Pre-emergence herbicidal activity (percentage phytotoxicity) ALOMY PRE
[5] = post-emergence, 360 h, post-emergence, visual assessment 15 DAA, read-out: Post-emergence herbicidal activity (percentage phytotoxicity) AVEFA POST
[6] = pre-emergence, 480 h, pre-emergence, visual assessment 20 DAA, read-out: Pre-emergence herbicidal activity (percentage phytotoxicity) AVEFA PRE
[7] = post-emergence, 360 h, post-emergence, visual assessment 15 DAA, read-out: Post-emergence herbicidal activity (percentage phytotoxicity) ECHCG POST
[8] = pre-emergence, 480 h, pre-emergence, visual assessment 20 DAA, read-out: Pre-emergence herbicidal activity (percentage phytotoxicity) ECHCG PRE
[9] = post-emergence, 360 h, post-emergence, visual assessment 15 DAA, read-out: Post-emergence herbicidal activity (percentage phytotoxicity) LOLPE POST
[10] = pre-emergence, 480 h, pre-emergence, visual assessment 20 DAA, read-out: Pre-emergence herbicidal activity (percentage phytotoxicity) LOLPE PRE

Compound | pest or weed control at 250 g/ha [1, 3] [%] | pest or weed control at 250 g/ha [1, 4] [%] | pest or weed control at 250 g/ha (Avena fatua (AVEFA); [5]) [%] | pest or weed control at 250 g/ha (Avena fatua (AVEFA); [6]) [%] | pest or weed control at 250 g/ha [2, 7] [%] | pest or weed control at 250 g/ha [2, 8] [%] | pest or weed control at 250 g/ha (Lolium perenne (LOLPE); [9]) [%] | pest or weed control at 250 g/ha (Lolium perenne (LOLPE); [10]) [%]
Cc1cc(-c2ncc(Cl)cn2)cc(C)c1C1C(=O)CC(CC(=O)NC(C)C)C1=O (centres unmarked) [Compound B340] | 100 | 100 | 100 | 100 | 100 | 100 | 100 | 100
C=C(C)CNC(=O)CC1CC(=O)C(c2c(C)cc(-c3ncc(Cl)cn3)cc2C)C1=O (centres unmarked) [Compound B341] | 100 | 100 | 100 | 80 | 100 | 100 | 100 | 80
Cc1cc(-c2ncc(Cl)cn2)cc(C)c1C1C(=O)CC(CC(=O)NCC2CC2)C1=O (centres unmarked) [Compound B342] | 100 | 100 | 100 | 90 | 100 | 100 | 100 | 100
C#CC(C)(C)NC(=O)CC1CC(=O)C(c2c(C)cc(-c3ncc(Cl)cn3)cc2C)C1=O (centres unmarked) [Compound B343] | 100 | 100 | 100 | 90 | 100 | 100 | 100 | 100
COCC(C)(C)NC(=O)CC1CC(=O)C(c2c(C)cc(-c3ncc(Cl)cn3)cc2C)C1=O (centres unmarked) [Compound B344] | 100 | 90 | 100 | 80 | 100 | 100 | 90 | 80
C=CC(C)NC(=O)CC1CC(=O)C(c2c(C)cc(-c3ncc(Cl)cn3)cc2C)C1=O (centres unmarked) [Compound B345] | 100 | 100 | 100 | 90 | 100 | 100 | 100 | 100
COCC(C)NC(=O)CC1CC(=O)C(c2c(C)cc(-c3ncc(Cl)cn3)cc2C)C1=O (centres unmarked) [Compound B346] | 100 | 100 | 100 | 90 | 100 | 100 | 100 | 100
CCN(C)C(=O)CC1CC(=O)C(c2c(C)cc(-c3ncc(Cl)cn3)cc2C)C1=O (centres unmarked) [Compound B347] | 100 | 100 | 100 | 100 | 100 | 100 | 100 | 100
Cc1cc(-c2ncc(Cl)cn2)cc(C)c1C1C(=O)CC(CC(=O)N(C)C(C)(C)C)C1=O (centres unmarked) [Compound B348] | 100 | 80 | 100 | 80 | 100 | 100 | 100 | 90
C#CCN(C)C(=O)CC1CC(=O)C(c2c(C)cc(-c3ncc(Cl)cn3)cc2C)C1=O (centres unmarked) [Compound B349] | 100 | 100 | 100 | 90 | 100 | 90 | 100 | 90
